Results reported in patent publication US6518243B1, “Desleucyl glycopeptide antibiotics and methods of making same” (Trustees of Princeton University, priority 1999, dated 2003).

Legend:
S. Aureus ATCC 33591 = test: MIC determination in BHI media, OD600; type: cell-based; settings: BHI + 0.1% casamino acids, 18 hours at 37° C., ≧90% OD600 inhibition
Protocol: (§1) Logarithmically growing cells were diluted to approximately 5×10^5 CFU/ml and subjected to test compounds solubilized and serially diluted in DMSO. […] After 18 hours at 37° C., the OD600 was determined by reading the ninety-six well microtiter plates on a microplate reader. For a given concentration, an MIC determination was made if: […]

S aureus ATCC 29213 = test: MIC determination in BHI media, OD600; type: cell-based; settings: BHI + 0.1% casamino acids, 18 hours at 37° C., ≧90% OD600 inhibition
Protocol: as §1

E. faecium ATCC 49624 = test: MIC determination in BHI media, OD600; type: cell-based; settings: BHI + 0.1% casamino acids, 18 hours at 37° C., ≧90% OD600 inhibition
Protocol: as §1

E. faceium (ATCC 49624) = test: Zone of inhibition screen, 96 well agar array format;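 note: score 3 means fourfold and score 4 sixteenfold the reference zone size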; type: cell-based, E. faecium
Protocol: The antibacterial activity of each of the compounds against the bacterial strains E. faceium (ATCC 49624), S. epidermidis (ATCC 12228), S. aureus (ATCC 29213), E. faecalis (CL 4877) and E. faecalis (ATCC 292121) was tested. Each of the compounds was screened in a 96 will agar array format.

E. faecalis (CL 4877) = test: as above; type: cell-based; design: scale not given here
In short: (§2)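 Panel screening of every compound against several bacterial strains, among them E. faecium ATCC 49624, was done in a 96-well agar array.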

S. aureus (ATCC 29213) = test: as above; type: cell-based; design: scale not given here; settings: zone of inhibition relative to 1 mg/ml stock solution of p-chlorobiphenylvancomycin
In short: as §2

[1] = test system: S. epidermidis (ATCC 12228); test: as above; type: cell-based; design: scale not given here; settings: zone of inhibition relative to 1 mg/ml stock solution of p-chlorobiphenylvancomycin
In short: as §2

[2] = zone of inhibition relative to 1 mg/ml p-chlorobiphenylvancomycin
[3] = zone of inhibition relative to 1 mg/ml stock solution of p-chlorobiphenylvancomycin

| MIC S. aureus ATCC 33591 (S. Aureus ATCC 33591) [µg/mL] | MIC S. aureus ATCC 29213 (S aureus ATCC 29213) [µg/mL] | MIC E. faecium ATCC 49624 (E. faecium ATCC 49624) [µg/mL] | Compound | zone score, E. faecium ATCC 49624 (E. faceium (ATCC 49624); [2]) | zone score, S. aureus ATCC 29213 (S. aureus (ATCC 29213)) | also measured |
| --- | --- | --- | --- | --- | --- | --- |
| 0.39 | 0.78 | 0.39 | CC1OC(OC2C(Oc3c4cc5cc3Oc3ccc(cc3Cl)C(O)C3NC(=O)C(NC(=O)C5NC(=O)C(CC(N)=O)NC(=O)C(NC(=O)C(N)Cc5c[nH]cn5)C(O)c5ccc(c(Cl)c5)O4)c4ccc(O)c(c4)-c4c(O)cc(O)cc4C(C(=O)O)NC3=O)OC(CO)C(O)C2O)CC(C)(NCc2ccc(-c3ccc(Cl)cc3)cc2)C1O (centres unmarked) [Compound 555] |  |  |  |
| 0.78 | 0.78 | 0.39 | CNC(COCc1ccccc1)C(=O)NC1C(=O)NC(CC(N)=O)C(=O)NC2C(=O)NC3C(=O)NC(C(=O)NC(C(=O)O)c4cc(O)cc(O)c4-c4cc3ccc4O)C(O)c3ccc(c(Cl)c3)Oc3cc2cc(c3OC2OC(CO)C(O)C(O)C2OC2CC(C)(NCc3ccc(-c4ccc(Cl)cc4)cc3)C(O)C(C)O2)Oc2ccc(cc2Cl)C1O (centres unmarked) [Compound 331] |  |  |  |
| 0.78 | 0.78 | 0.78 | CC1OC(OC2C(Oc3c4cc5cc3Oc3ccc(cc3Cl)C(O)C3NC(=O)C(NC(=O)C5NC(=O)C(CC(N)=O)NC(=O)C(NC(=O)CNC(=O)CNC(=O)CN)C(O)c5ccc(c(Cl)c5)O4)c4ccc(O)c(c4)-c4c(O)cc(O)cc4C(C(=O)O)NC3=O)OC(CO)C(O)C2O)CC(C)(NCc2ccc(-c3ccc(Cl)cc3)cc2)C1O (centres unmarked) [Compound 67] |  | 2 | zone score, S. epidermidis ATCC 12228 [1]: 2 |
| 0.78 | 0.25 | 0.78 | COCCOCC(=O)NC1C(=O)NC(CC(N)=O)C(=O)NC2C(=O)NC3C(=O)NC(C(=O)NC(C(=O)O)c4cc(O)cc(O)c4-c4cc3ccc4O)C(O)c3ccc(c(Cl)c3)Oc3cc2cc(c3OC2OC(CO)C(O)C(O)C2OC2CC(C)(NCc3ccc(-c4ccc(Cl)cc4)cc3)C(O)C(C)O2)Oc2ccc(cc2Cl)C1O (centres unmarked) [Compound 100] |  | 2 |  |

The remaining lines, values behind:

| Compound | MIC S. aureus ATCC 33591 (S. Aureus ATCC 33591) [µg/mL] | MIC S. aureus ATCC 29213 (S aureus ATCC 29213) [µg/mL] | MIC E. faecium ATCC 49624 (E. faecium ATCC 49624) [µg/mL] | zone score, E. faecium ATCC 49624 (E. faceium (ATCC 49624); [2]) | zone score, S. aureus ATCC 29213 (S. aureus (ATCC 29213)) | also measured |
| --- | --- | --- | --- | --- | --- | --- |
| CC1OC(OC2C(Oc3c4cc5cc3Oc3ccc(cc3Cl)C(O)C3NC(=O)C(NC(=O)C5NC(=O)C(CC(N)=O)NC(=O)C(NC(=O)CCS(=O)(=O)c5ccccc5)C(O)c5ccc(c(Cl)c5)O4)c4ccc(O)c(c4)-c4c(O)cc(O)cc4C(C(=O)O)NC3=O)OC(CO)C(O)C2O)CC(C)(NCc2ccc(-c3ccc(Cl)cc3)cc2)C1O (centres unmarked) [Compound 246] |  |  |  | 2 |  |  |
| CC1OC(OC2C(Oc3c4cc5cc3Oc3ccc(cc3Cl)C(O)C3NC(=O)C(NC(=O)C5NC(=O)C(CC(N)=O)NC(=O)C(NC(=O)C(N)CCCNC(=N)N)C(O)c5ccc(c(Cl)c5)O4)c4ccc(O)c(c4)-c4c(O)cc(O)cc4C(C(=O)O)NC3=O)OC(CO)C(O)C2O)CC(C)(NCc2ccc(-c3ccc(Cl)cc3)cc2)C1O (centres unmarked) [Compound 217] |  |  |  | 2 |  | zone score, E. faecalis CL 4877 (E. faecalis (CL 4877); [2]): 2 |
| CC(N)C(=O)NC1C(=O)NC(CC(N)=O)C(=O)NC2C(=O)NC3C(=O)NC(C(=O)NC(C(=O)O)c4cc(O)cc(O)c4-c4cc3ccc4O)C(O)c3ccc(c(Cl)c3)Oc3cc2cc(c3OC2OC(CO)C(O)C(O)C2OC2CC(C)(NCc3ccc(-c4ccc(Cl)cc4)cc3)C(O)C(C)O2)Oc2ccc(cc2Cl)C1O (centres unmarked) [Compound 220] |  |  |  | 2 |  |  |
| CC(O)C(N)C(=O)NC1C(=O)NC(CC(N)=O)C(=O)NC2C(=O)NC3C(=O)NC(C(=O)NC(C(=O)O)c4cc(O)cc(O)c4-c4cc3ccc4O)C(O)c3ccc(c(Cl)c3)Oc3cc2cc(c3OC2OC(CO)C(O)C(O)C2OC2CC(C)(NCc3ccc(-c4ccc(Cl)cc4)cc3)C(O)C(C)O2)Oc2ccc(cc2Cl)C1O (centres unmarked) [Compound 43] |  |  |  |  |  | zone score, E. faecalis CL 4877 (E. faecalis (CL 4877); [3]): 2; zone score, E. faecium ATCC 49624 (E. faceium (ATCC 49624); [3]): 2 |
| C[C@H]1O[C@H](O[C@H]2[C@H](Oc3c4cc5cc3Oc3ccc(cc3Cl)[C@@H](O)[C@@H](NC(=O)[C@@H](N)Cc3c[nH]c6ccccc36)C(=O)N[C@@H](CC(N)=O)C(=O)N[C@H]5C(=O)N[C@H]3C(=O)N[C@H](C(=O)N[C@@H](C(=O)O)c5cc(O)cc(O)c5-c5cc3ccc5O)[C@H](O)c3ccc(c(Cl)c3)O4)O[C@H](CO)[C@@H](O)[C@@H]2O)C[C@@](C)(NCc2ccc(-c3ccc(Cl)cc3)cc2)[C@H]1O [Compound 12] | 0.78 | 0.78 | 0.39 |  | 2 | zone score, S. epidermidis ATCC 12228 [1]: 2 |
